From patent US9670549B2, “Gene expression signatures of neoplasm responsiveness to therapy” (The United States of America, as represented by the …, priority 2011, dated 2017)

What was measured:
[1] = system: cleaved PARP, BCL-xL, Survivin; assay: Western blot of apoptosis proteins (U266, L363 lysates); type: cell-based, human; details: U266 or L363 lysates, 48 hours
Description: In sequential experiments, the first agent listed was added 24 hours prior to the addition of the second agent.
Western blot of control, single agent, and combination treated (D) L363 or (E) U266 cells at 48 hours.

HDAC2 = HDAC2 (Homo sapiens, UniProt Q92769); details: cited from earlier work
HDAC1 = HDAC1 (Homo sapiens, UniProt Q13547); details: cited from earlier work
L363 cells = assay: L363 cell viability after triapine and/or sirolimus; details: L363, 48 hour treatment
Description: (§1) L363 cell viability after 48 hour treatment with triapine and/or sirolimus. Significance between treatments was determined by repeated measures ANOVA with the Bonferroni correction.

RRM2, γH2AX = assay: Western blot of L363 lysates for RRM2 and DNA damage marker; details: L363, 48 hours; sirolimus 10 nM, entinostat 0.5 μM, Triapine 1 μM
Description: as §1

Sequence of HDAC1 (Q13547 whole entry): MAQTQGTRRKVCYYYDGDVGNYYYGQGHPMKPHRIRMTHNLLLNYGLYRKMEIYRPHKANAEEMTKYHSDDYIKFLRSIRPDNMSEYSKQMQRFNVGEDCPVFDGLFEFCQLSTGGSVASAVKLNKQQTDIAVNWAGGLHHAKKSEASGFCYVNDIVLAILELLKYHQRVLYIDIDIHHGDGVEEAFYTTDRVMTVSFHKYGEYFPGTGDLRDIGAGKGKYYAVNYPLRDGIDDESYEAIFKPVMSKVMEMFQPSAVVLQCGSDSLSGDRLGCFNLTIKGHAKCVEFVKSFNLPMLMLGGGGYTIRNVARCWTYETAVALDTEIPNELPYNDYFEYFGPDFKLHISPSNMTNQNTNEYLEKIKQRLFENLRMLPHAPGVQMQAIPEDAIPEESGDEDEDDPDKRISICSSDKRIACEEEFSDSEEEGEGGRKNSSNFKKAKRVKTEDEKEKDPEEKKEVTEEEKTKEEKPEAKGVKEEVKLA
Sequence of HDAC2 (Q92769 whole entry): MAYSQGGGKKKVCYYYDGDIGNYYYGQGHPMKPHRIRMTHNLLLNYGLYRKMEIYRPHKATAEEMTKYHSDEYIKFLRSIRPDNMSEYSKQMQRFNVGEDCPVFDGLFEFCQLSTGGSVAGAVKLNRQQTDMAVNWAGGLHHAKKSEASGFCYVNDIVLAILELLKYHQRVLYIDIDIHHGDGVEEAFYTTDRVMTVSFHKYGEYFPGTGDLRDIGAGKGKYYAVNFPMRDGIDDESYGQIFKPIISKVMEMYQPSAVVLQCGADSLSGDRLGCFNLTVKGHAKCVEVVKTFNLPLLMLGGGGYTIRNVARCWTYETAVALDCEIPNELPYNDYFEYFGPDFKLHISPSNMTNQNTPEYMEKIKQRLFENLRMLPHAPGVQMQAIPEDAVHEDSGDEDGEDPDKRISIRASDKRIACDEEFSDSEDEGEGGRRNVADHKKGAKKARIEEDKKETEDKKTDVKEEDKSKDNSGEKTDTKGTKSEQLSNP

Nc1ccccc1NC(=O)c1ccc(CNC(=O)OCc2cccnc2)cc1 [entinostat]
PARP cleavage [1]: observed | activity for HDAC2 (HDAC2): weak activity | activity against HDAC1 (HDAC1): strong activity | affinity for HDAC1 (HDAC1): high affinity

NC(=S)N/N=C/c1ncccc1N [triapine]
MM cell viability (L363 cells): inhibited MM cell viability | DNA damage marker γH2AX (RRM2, γH2AX): increased yH2AX
